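Results reflect a 48-hour exposure of cells in 96-well plates to compound at five concentrations. The concentration for 50% growth inhibition is given as GI50. TGI denotes the concentration required for complete inhibition of growth.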
Legend:
Test in all cases: NCI anticancer screen, dose series, 48 h
[1] = tested on: SK-OV-3 ovarian
[2] = tested on: NCI-H23 lung
[3] = tested on: IGROV1 ovarian
[4] = tested on: 786-0 renal
[5] = tested on: MOLT-4 leukemia
[6] = tested on: NCI-H460 lung
[7] = tested on: TK-10 renal
[8] = tested on: SNB-75 CNS
[9] = tested on: SN12C renal
[10] = tested on: NCI-H226 lung

Row | Compound | GI50 [1] | TGI [1] | GI50 [2] | TGI [2] | GI50 [3] | TGI [3] | GI50 [4] | TGI [4] | GI50 [5] | TGI [5] | GI50 [6] | TGI [6] | GI50 [7] | TGI [7] | GI50 [8] | TGI [8] | GI50 [9] | TGI [9] | GI50 [10] | TGI [10]
1 | COc1cc(NCCCCN=C(N)NC(N)=NC(C)C)c2ncccc2c1 | 34.4 µM | > 100 µM | 0.984 µM | 10.1 µM | 0.439 µM | 6.32 µM | 31 µM | > 100 µM | 3.28 µM | 16.6 µM | 5.97 µM | 20 µM | 10.8 µM | 43.3 µM | 4.21 µM | 17.3 µM | 5.21 µM | 28.5 µM | 27 µM | > 100 µM
2 | CC1=CC(=O)CCC2(C)C1CC[C@@H]2OC=O (stereo partly drawn) |  | > 100 µM |  | > 100 µM |  | > 100 µM |  | > 100 µM |  | > 100 µM |  | > 100 µM |  | > 100 µM |  | > 100 µM |  | > 100 µM |  | > 100 µM
3 | COc1ccc(C(=O)c2ccc(OC)c(OC)c2OC)cc1 | 2.06 µM | 13.1 µM | 3.32 µM | > 100 µM | 1.76 µM | > 100 µM | 9.85 µM | > 100 µM | 1.11 µM | > 100 µM | 1.99 µM | 11.6 µM | 2.85 µM | > 100 µM | 1.76 µM | > 100 µM | 8.33 µM | > 100 µM | 34.7 µM | > 100 µM
4 | C=C/C=C(\NC(=O)C(Cl)(Cl)Cl)[Si](C)(C)C |  | > 100 µM |  | > 100 µM |  | > 100 µM |  | > 100 µM |  | > 100 µM |  | > 100 µM |  | > 100 µM |  | > 100 µM |  | > 100 µM |  | > 100 µM
5 | NC(CSC(c1ccccc1)(c1ccccc1)c1ccc(Cl)cc1)C(=O)O (stereo not drawn) | 0.158 µM | 21.7 µM | 0.487 µM | 41.9 µM | 0.355 µM | 34.1 µM | 1.36 µM | 30 µM | 1.66 µM | 53.3 µM | 0.342 µM | 12.9 µM | 13.5 µM | 64.7 µM |  | 1.85 µM | 0.54 µM | > 57.8 µM | 5.11 µM | 49 µM
6 | CC(=O)Nc1ccc(Sc2ccc([N+](=O)[O-])o2)cc1 | 8.37 µM | 20.6 µM | 2.99 µM | 10.2 µM | 1.27 µM | 4.27 µM | 2.69 µM | 7.55 µM | 2.14 µM | 6.42 µM | 2.83 µM | 8.93 µM | 2.13 µM | 5.99 µM | 2.78 µM | 12.8 µM | 2.96 µM | 10.7 µM | 2.88 µM | 8.7 µM
7 | COc1ccc(/C(Cl)=C(\C=O)c2ccc([N+](=O)[O-])cc2)cc1OC |  | 60 µM |  | 15.8 µM |  | 38.6 µM |  | 20.1 µM |  | > 27.4 µM |  | 34 µM |  | > 47.3 µM |  | 20 µM |  | 22.1 µM |  | > 54.8 µM
8 | C[C@]12CCC[C@H](Cl)C1(O)C[C@H](C(=O)O)CC2 (stereo partly drawn) |  | > 100 µM |  | > 100 µM |  | > 100 µM |  | > 100 µM |  | > 100 µM |  | > 100 µM |  | > 100 µM |  | > 100 µM |  | > 100 µM |  | > 100 µM
9 | NC(=NCCCOc1ccc(Cl)cc1)Nc1ccc(Cl)cc1 | 3.31 µM | 12.3 µM | 2.31 µM | 7.43 µM | 2.02 µM | 5.83 µM | 2.15 µM | 6.67 µM | 1.66 µM | 4.66 µM | 2.7 µM | 7.94 µM | 1.75 µM | 3.89 µM | 0.725 µM | 11.8 µM | 2.75 µM | 10.9 µM | 3.97 µM | 19.6 µM
10 | COc1cc2c(cc1OCCOS(C)(=O)=O)N=C[C@@H]1CCCN1C2=O |  | > 100 µM | 12.2 µM | 25.2 µM |  | 99.1 µM | 17 µM | 30.7 µM |  | 65.8 µM |  | > 100 µM | 18.1 µM | 33.2 µM |  | > 100 µM |  | > 100 µM | 15.4 µM | 33.5 µM
11 | CCCCCC(O)C1C(=O)OC(C)C(O)/C=C/C=C/C=C/C=C\C=C(\C)C(O)CC(O)CC(O)CC(O)CC(O)CC(O)CC1O (stereo not drawn) | > 100 µM | > 100 µM | > 100 µM | > 100 µM | > 100 µM | > 100 µM | > 100 µM | > 100 µM | > 100 µM | > 100 µM | > 100 µM | > 100 µM | > 100 µM | > 100 µM | > 100 µM | > 100 µM | > 100 µM | > 100 µM | > 100 µM | > 100 µM
12 | CC(C)c1ccccc1NC(=O)C(=O)Cc1nc2ccccc2s1 |  | > 100 µM |  | > 100 µM |  | > 100 µM |  | > 100 µM |  | > 100 µM |  | > 100 µM |  | > 100 µM |  | > 100 µM |  | > 100 µM |  | > 100 µM
13 | COc1ccc(Nn2c(SCC(=O)Nc3nc(-c4ccc(Cl)cc4)cs3)nc(C)c2C)cc1 | 4.24 µM | > 100 µM | 1.53 µM | > 100 µM | 5.67 µM | > 100 µM | 3.46 µM | 18.2 µM | 2.54 µM | > 100 µM | 2.69 µM | 10.6 µM | 14.8 µM | 80.9 µM | 4.8 µM | > 100 µM | 2.3 µM | 7.52 µM | 3.26 µM | > 100 µM
14 | C=C(C)[C@@H]1CC[C@]2(C)[C@H](C(=O)C=C3[C@@H]4C[C@](C)(C(=O)N5CCN(C)CC5)CC[C@]4(C)CC[C@]32C)[C@@]1(C)CCC#N | 6.03 µM | 12.5 µM | 6.97 µM | 14.3 µM | 6.58 µM | 14.6 µM | 7.03 µM | 13.7 µM | 2.95 µM | 10.9 µM | 6.48 µM | 13.9 µM | 8.16 µM | 15.5 µM | 7.52 µM | 15.8 µM | 6.37 µM | 12.9 µM | 7.42 µM | 15.9 µM
15 | C/C(=N\NC(=O)c1ccncc1)c1ccc2ccccc2c1O |  | > 60.7 µM |  | > 51 µM |  | 99.3 µM |  | 48.4 µM |  | 40.3 µM |  | 20.4 µM |  | > 100 µM |  | > 43.8 µM |  | 40.9 µM |  | 12.1 µM
